Legend:
[1] = tested on: Tyrosine-protein kinase ABL1 (Homo sapiens), P00519 [E255K]; experiment: Inhibition of phosphorylated ABL1 E255K mutant at 10 uM; settings: values are per cent of control
[2] = biological target: Cyclin-dependent kinase 18 (Homo sapiens) (UniProt Q07002); experiment: Inhibition of PCTK3 at 10 uM; settings: values are per cent of control
[3] = biological target: Cyclin-dependent kinase 19 (Homo sapiens) (UniProt Q9BWU1); experiment: Inhibition of CDK11 at 10 uM; values are per cent of control
[4] = biological target: Serine/threonine-protein kinase 17B (Homo sapiens) (UniProt O94768); experiment: Inhibition of DRAK2 at 10 uM; settings: values are per cent of control
[5] = biological target: Ribosomal protein S6 kinase alpha-6 (Homo sapiens) (UniProt Q9UK32); experiment: Inhibition of RSK4 C-terminal domain2 at 10 uM
[6] = biological target: Mitogen-activated protein kinase kinase kinase 13 (Homo sapiens) (UniProt O43283); experiment: Inhibition of LZK at 10 uM; values are per cent of control
[7] = biological target: Mitogen-activated protein kinase 14 (Homo sapiens) (UniProt Q16539); experiment: Inhibition of p38alpha at 10 uM; values are per cent of control
[8] = biological target: Dual specificity protein kinase CLK2 (Homo sapiens) (UniProt P49760); experiment: Inhibition of CLK2 at 10 uM; settings: values are per cent of control
[9] = biological target: Calcium/calmodulin-dependent protein kinase type 1 (Homo sapiens) (UniProt Q14012); experiment: Inhibition of CAMK1 at 10 uM; settings: values are per cent of control
[10] = biological target: Serine/threonine-protein kinase Nek3 (Homo sapiens) (UniProt P51956); experiment: Inhibition of NEK3 at 10 uM
[11] = biological target: cGMP-dependent protein kinase 1 (Homo sapiens) (UniProt Q13976); experiment: Inhibition of PRKG1 at 10 uM; settings: values are per cent of control
[12] = biological target: Mitogen-activated protein kinase kinase kinase 20 (Homo sapiens) (UniProt Q9NYL2); experiment: Inhibition of ZAK at 10 uM; settings: values are per cent of control
[13] = biological target: Casein kinase I isoform delta (Homo sapiens) (UniProt P48730); experiment: Inhibition of CSNK1D at 10 uM; values are per cent of control
[14] = tested on: Phosphatidylinositol 4,5-bisphosphate 3-kinase catalytic subunit alpha isoform (Homo sapiens), P42336 [E542K]; experiment: Inhibition of PIK3CA E542K mutant at 10 uM
[15] = biological target: Mitogen-activated protein kinase kinase kinase 15 (Homo sapiens) (UniProt Q6ZN16); experiment: Inhibition of MAP3K15 at 10 uM; settings: values are per cent of control
[16] = biological target: Serine/threonine-protein kinase VRK2 (Homo sapiens) (UniProt Q86Y07); experiment: Inhibition of VRK2 at 10 uM; settings: values are per cent of control
[17] = biological target: BDNF/NT-3 growth factors receptor (Homo sapiens) (UniProt Q16620); experiment: Inhibition of TRKB at 10 uM; settings: values are per cent of control
[18] = biological target: Ribosomal protein S6 kinase alpha-4 (Homo sapiens) (UniProt O75676); experiment: Inhibition of RPS6KA4 C-terminal domain2 at 10 uM
[19] = biological target: Casein kinase I isoform epsilon (Homo sapiens) (UniProt P49674); experiment: Inhibition of CSNK1E at 10 uM; values are per cent of control
[20] = biological target: MAP/microtubule affinity-regulating kinase 4 (Homo sapiens) (UniProt Q96L34); experiment: Inhibition of MARK4 at 10 uM; settings: values are per cent of control
[21] = biological target: Cyclin-dependent kinase-like 2 (Homo sapiens) (UniProt Q92772); experiment: Inhibition of CDKL2 at 10 uM; settings: values are per cent of control
Chain of Cyclin-dependent kinase-like 2 (Homo sapiens) (Q92772 whole entry): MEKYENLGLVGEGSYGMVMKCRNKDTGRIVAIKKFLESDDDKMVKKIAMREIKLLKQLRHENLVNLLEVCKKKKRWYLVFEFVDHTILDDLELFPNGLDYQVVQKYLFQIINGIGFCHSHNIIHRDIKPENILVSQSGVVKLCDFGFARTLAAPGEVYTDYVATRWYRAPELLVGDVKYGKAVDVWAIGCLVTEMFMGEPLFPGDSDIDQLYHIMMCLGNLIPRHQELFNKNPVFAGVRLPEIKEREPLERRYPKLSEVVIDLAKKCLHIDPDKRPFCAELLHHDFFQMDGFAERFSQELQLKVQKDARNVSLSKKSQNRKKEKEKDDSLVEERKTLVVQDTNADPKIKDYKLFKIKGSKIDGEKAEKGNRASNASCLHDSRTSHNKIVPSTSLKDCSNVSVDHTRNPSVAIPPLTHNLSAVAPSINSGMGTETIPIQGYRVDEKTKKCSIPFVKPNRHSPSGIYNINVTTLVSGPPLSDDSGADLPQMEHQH

[22] = biological target: Tyrosine-protein kinase ABL2 (Homo sapiens) (UniProt P42684); experiment: Inhibition of ABL2 at 10 uM; settings: values are per cent of control
[23] = biological target: Tyrosine-protein kinase JAK2 (Homo sapiens) (UniProt O60674); experiment: Inhibition of JAK2 JH1 catalytic domain at 10 uM; values are per cent of control
[24] = biological target: Activated CDC42 kinase 1 (Homo sapiens) (UniProt Q07912); experiment: Inhibition of TNK2 at 10 uM; settings: values are per cent of control
[25] = biological target: Cyclin-dependent kinase 15 (Homo sapiens) (UniProt Q96Q40); experiment: Inhibition of PFTAIRE2 at 10 uM; settings: values are per cent of control
[26] = biological target: Rhodopsin kinase GRK1 (Homo sapiens) (UniProt Q15835); experiment: Inhibition of GRK1 at 10 uM; settings: values are per cent of control
[27] = biological target: Ephrin type-B receptor 6 (Homo sapiens) (UniProt O15197); experiment: Inhibition of EPHB6 at 10 uM; settings: values are per cent of control
[28] = biological target: Casein kinase I isoform alpha-like (Homo sapiens) (UniProt Q8N752); experiment: Inhibition of CSNK1A1L at 10 uM; settings: values are per cent of control
[29] = Inhibition of FLT3 ITD mutant at 10 uM; settings: values are per cent of control
[30] = biological target: Phosphorylase b kinase gamma catalytic chain, liver/testis isoform (Homo sapiens) (UniProt P15735); experiment: Inhibition of PHKG2 at 10 uM
Chain of Phosphorylase b kinase gamma catalytic chain, liver/testis isoform (Homo sapiens) (P15735 whole entry, canonical isoform): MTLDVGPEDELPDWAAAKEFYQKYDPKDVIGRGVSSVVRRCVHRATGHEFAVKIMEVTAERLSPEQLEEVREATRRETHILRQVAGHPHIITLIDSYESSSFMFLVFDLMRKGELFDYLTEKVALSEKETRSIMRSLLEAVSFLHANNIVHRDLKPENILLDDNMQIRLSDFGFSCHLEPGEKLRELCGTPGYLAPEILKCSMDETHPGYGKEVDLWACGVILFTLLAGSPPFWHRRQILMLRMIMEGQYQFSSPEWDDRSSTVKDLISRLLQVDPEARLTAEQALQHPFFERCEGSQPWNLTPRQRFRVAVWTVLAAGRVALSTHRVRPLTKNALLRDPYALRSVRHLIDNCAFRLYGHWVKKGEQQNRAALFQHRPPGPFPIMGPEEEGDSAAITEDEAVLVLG

[31] = biological target: Rho-associated protein kinase 1 (Homo sapiens) (UniProt Q13464); experiment: Inhibition of ROCK1 at 10 uM
[32] = biological target: Platelet-derived growth factor receptor alpha (Homo sapiens) (UniProt P16234); experiment: Inhibition of PDGFRA at 10 uM; settings: values are per cent of control
Chain of Platelet-derived growth factor receptor alpha (Homo sapiens) (P16234 whole entry): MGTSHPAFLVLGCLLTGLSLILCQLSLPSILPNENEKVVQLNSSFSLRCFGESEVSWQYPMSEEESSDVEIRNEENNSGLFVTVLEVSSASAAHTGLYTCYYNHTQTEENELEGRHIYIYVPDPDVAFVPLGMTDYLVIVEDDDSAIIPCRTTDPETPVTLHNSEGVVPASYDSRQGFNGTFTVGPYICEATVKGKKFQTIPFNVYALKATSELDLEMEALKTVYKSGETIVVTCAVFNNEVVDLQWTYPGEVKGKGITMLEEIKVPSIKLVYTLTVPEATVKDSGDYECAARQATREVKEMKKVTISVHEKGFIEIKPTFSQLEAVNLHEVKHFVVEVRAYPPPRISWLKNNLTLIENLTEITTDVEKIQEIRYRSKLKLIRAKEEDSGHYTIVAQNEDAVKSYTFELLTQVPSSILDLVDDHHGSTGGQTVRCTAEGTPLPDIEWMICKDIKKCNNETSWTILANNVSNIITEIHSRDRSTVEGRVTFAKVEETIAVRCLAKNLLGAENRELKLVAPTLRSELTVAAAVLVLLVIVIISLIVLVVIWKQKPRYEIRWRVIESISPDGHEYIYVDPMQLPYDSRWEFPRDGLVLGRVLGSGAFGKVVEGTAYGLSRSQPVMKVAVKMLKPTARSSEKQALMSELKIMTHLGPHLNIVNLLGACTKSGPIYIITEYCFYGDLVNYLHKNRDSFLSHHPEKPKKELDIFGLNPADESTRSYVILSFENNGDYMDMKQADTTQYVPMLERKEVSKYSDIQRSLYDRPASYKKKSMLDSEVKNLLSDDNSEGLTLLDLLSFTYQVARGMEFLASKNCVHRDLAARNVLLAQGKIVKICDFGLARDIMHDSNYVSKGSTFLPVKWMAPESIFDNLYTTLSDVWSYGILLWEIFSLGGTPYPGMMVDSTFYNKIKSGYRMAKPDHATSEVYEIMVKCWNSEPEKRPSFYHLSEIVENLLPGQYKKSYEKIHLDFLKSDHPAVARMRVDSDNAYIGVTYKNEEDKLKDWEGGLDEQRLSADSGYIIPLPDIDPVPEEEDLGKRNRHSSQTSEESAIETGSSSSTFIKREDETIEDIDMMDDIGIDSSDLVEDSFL

[33] = biological target: Dual specificity mitogen-activated protein kinase kinase 1 (Homo sapiens) (UniProt Q02750); experiment: Inhibition of MEK1 at 10 uM; settings: values are per cent of control
Chain of Dual specificity mitogen-activated protein kinase kinase 1 (Homo sapiens) (Q02750 whole entry): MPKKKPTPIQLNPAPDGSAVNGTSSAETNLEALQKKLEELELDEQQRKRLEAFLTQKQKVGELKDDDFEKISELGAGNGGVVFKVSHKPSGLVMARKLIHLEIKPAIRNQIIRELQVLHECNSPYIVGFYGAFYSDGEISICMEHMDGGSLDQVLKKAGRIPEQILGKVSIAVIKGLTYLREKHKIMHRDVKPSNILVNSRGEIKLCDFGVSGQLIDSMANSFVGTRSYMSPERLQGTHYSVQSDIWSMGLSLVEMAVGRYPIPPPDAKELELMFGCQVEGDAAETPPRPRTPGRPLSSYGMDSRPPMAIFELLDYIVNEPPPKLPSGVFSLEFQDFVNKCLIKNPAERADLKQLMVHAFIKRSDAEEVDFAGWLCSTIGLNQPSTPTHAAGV

[34] = biological target: Ephrin type-A receptor 7 (Homo sapiens) (UniProt Q15375); experiment: Inhibition of EPHA7 at 10 uM; settings: values are per cent of control
Chain of Ephrin type-A receptor 7 (Homo sapiens) (Q15375 28-998 limits assumed): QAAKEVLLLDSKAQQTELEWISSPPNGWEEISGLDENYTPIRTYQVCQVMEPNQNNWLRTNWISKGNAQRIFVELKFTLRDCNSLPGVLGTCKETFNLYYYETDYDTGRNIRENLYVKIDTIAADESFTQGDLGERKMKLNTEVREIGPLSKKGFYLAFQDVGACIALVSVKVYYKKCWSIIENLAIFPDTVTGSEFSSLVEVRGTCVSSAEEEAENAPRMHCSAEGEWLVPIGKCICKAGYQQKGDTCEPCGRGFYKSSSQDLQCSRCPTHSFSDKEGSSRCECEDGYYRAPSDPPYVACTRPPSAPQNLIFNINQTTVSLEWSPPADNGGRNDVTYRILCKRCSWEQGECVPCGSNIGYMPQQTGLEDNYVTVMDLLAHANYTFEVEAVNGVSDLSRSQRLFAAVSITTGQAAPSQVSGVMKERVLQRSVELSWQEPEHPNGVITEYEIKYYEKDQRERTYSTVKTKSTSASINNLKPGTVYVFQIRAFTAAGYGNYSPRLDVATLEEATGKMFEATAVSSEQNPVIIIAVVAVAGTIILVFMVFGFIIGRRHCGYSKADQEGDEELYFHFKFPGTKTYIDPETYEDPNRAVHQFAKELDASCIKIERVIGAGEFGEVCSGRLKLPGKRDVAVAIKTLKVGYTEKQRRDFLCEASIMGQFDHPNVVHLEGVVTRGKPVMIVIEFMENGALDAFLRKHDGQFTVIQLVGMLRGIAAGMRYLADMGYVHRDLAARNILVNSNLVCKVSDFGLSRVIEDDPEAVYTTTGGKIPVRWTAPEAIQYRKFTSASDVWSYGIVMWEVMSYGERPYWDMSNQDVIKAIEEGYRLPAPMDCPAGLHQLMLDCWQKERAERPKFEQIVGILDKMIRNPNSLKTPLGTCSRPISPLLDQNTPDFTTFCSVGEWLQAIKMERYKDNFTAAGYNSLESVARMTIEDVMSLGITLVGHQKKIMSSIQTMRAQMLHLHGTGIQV

[35] = biological target: RAC-gamma serine/threonine-protein kinase (Homo sapiens) (UniProt Q9Y243); experiment: Inhibition of AKT3 at 10 uM; settings: values are per cent of control
[36] = biological target: Aurora kinase C (Homo sapiens) (UniProt Q9UQB9); experiment: Inhibition of AURKC at 10 uM; settings: values are per cent of control
[37] = biological target: Cyclin-dependent kinase-like 5 (Homo sapiens) (UniProt O76039); experiment: Inhibition of CDKL5 at 10 uM; settings: values are per cent of control
Chain of Cyclin-dependent kinase-like 5 (Homo sapiens) (O76039 whole entry): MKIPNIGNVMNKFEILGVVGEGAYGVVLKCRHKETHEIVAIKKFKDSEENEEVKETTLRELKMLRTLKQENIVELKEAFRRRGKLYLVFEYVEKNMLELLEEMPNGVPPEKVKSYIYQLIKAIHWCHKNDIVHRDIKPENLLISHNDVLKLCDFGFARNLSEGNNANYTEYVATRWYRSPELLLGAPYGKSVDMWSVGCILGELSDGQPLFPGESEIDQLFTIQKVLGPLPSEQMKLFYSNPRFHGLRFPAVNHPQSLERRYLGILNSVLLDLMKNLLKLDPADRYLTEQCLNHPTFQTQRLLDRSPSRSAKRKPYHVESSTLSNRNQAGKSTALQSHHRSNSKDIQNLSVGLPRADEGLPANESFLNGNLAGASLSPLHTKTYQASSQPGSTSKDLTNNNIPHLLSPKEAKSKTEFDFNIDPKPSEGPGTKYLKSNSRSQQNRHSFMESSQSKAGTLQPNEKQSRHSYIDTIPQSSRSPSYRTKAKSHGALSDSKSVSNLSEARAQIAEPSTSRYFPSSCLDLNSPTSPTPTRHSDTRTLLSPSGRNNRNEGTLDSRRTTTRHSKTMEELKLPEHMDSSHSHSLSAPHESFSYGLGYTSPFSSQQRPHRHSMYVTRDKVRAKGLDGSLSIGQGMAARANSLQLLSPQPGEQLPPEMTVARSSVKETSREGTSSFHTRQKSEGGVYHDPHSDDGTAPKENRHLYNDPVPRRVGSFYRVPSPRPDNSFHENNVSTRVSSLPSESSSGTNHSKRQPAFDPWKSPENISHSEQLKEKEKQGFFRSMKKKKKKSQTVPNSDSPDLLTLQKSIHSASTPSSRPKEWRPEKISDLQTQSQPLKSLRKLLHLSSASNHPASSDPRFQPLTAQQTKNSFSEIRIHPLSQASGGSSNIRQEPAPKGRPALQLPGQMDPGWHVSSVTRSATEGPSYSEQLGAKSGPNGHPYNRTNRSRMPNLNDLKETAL

[38] = tested on: Mast/stem cell growth factor receptor Kit (Homo sapiens), P10721 [V559D]; experiment: Inhibition of KIT V559D mutant at 10 uM; settings: values are per cent of control
[39] = biological target: Protein kinase C delta type (Homo sapiens) (UniProt Q05655); experiment: Inhibition of PRKCD at 10 uM
[40] = biological target: Tyrosine-protein kinase Tec (Homo sapiens) (UniProt P42680); experiment: Inhibition of TEC at 10 uM; values are per cent of control
Chain of Tyrosine-protein kinase Tec (Homo sapiens) (P42680 whole entry): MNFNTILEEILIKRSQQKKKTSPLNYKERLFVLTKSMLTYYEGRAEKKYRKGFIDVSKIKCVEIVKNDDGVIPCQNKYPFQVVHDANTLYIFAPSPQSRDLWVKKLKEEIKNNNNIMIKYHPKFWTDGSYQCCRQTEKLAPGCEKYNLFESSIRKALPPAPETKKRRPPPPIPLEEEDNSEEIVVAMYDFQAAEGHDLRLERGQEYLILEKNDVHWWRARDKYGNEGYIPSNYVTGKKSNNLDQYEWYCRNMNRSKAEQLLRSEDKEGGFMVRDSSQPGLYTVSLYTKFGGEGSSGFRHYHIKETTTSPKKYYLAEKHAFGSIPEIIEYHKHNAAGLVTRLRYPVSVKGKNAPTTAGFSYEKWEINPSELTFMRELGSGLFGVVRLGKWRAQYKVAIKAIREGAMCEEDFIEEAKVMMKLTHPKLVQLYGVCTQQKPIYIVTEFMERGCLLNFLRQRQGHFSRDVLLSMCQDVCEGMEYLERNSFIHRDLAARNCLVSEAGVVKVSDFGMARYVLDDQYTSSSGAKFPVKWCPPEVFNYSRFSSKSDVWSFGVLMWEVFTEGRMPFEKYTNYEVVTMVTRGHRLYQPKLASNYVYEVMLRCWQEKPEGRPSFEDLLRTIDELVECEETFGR

[41] = biological target: TGF-beta receptor type-1 (Homo sapiens) (UniProt P36897); experiment: Inhibition of TGFBR1 at 10 uM
[42] = biological target: Myosin-IIIa (Homo sapiens) (UniProt Q8NEV4); experiment: Inhibition of MYO3A at 10 uM
[43] = biological target: Calcium/calmodulin-dependent protein kinase type II subunit alpha (Homo sapiens) (UniProt Q9UQM7); experiment: Inhibition of CAMK2A at 10 uM; settings: values are per cent of control
[44] = biological target: Serine/threonine-protein kinase MARK1 (Homo sapiens) (UniProt Q9P0L2); experiment: Inhibition of MARK1 at 10 uM; settings: values are per cent of control

With `CCN1CCN(Cc2ccc(NC(=O)c3ccc(C)c(C#Cc4cccnc4)c3)cc2C(F)(F)F)CC1` the residual binding, % of control [1] was 0.05%, the residual binding, % of control [2] was 6.2% and the level, % of control [3] was 5%. For the same compound, the residual binding, % of control [4] was 100%, the inhibition [5] was 6.8% and the level, % of control [6] was 7.4%. The level, % of control [7] was 0%, the residual binding, % of control [8] was 88% and the residual binding, % of control [9] was 40%. It also gave an inhibition [10] of 53%, a residual binding, % of control [11] of 100% and a residual binding, % of control [12] of 0.4%. It also gave a level, % of control [13] of 29%, an inhibition [14] of 100% and a residual binding, % of control [15] of 78%. For the same compound, the residual binding, % of control [16] was 95%, the residual binding, % of control [17] was 1.6% and the inhibition [18] was 99%. For the same compound, the level, % of control [19] was 48%, the residual binding, % of control [20] was 87% and the residual binding, % of control [21] was 1.4%. For the same compound, the residual binding, % of control [22] was 0.05%, the level, % of control [23] was 3% and the residual binding, % of control [24] was 11%. It also gave a residual binding, % of control [25] of 6.4%, a residual binding, % of control [26] of 100% and a residual binding, % of control [27] of 8.8%. It also gave a residual binding, % of control [28] of 89%, a residual binding, % of control [29] of 0.1% and an inhibition [30] of 92%. For the same compound, the inhibition [31] was 43%, the residual binding, % of control [32] was 0% and the residual binding, % of control [33] was 100%. For the same compound, the residual binding, % of control [34] was 0.55%, the residual binding, % of control [35] was 48% and the residual binding, % of control [36] was 13%. For the same compound, the residual binding, % of control [37] was 12%, the residual binding, % of control [38] was 0% and the inhibition [39] was 39%. For the same compound, the % of control [40] was 3.7%, the inhibition [41] was 100% and the inhibition [42] was 3.2%. The residual binding, % of control [43] was 100% and the residual binding, % of control [44] was 83%.

Work on `CCN1CCN(Cc2ccc(NC(=O)c3ccc(C)c(C#Cc4cnc5[nH]ccc5c4)c3)cc2C(F)(F)F)CC1` yielded a residual binding, % of control [1] of 0.2%, a residual binding, % of control [2] of 12% and a level, % of control [3] of 4.2%. It also gave a residual binding, % of control [4] of 12%, an inhibition [5] of 29% and a level, % of control [6] of 7.8%. For the same compound, the level, % of control [7] was 0%, the residual binding, % of control [8] was 100% and the residual binding, % of control [9] was 20%. The inhibition [10] was 49%, the residual binding, % of control [11] was 100% and the residual binding, % of control [12] was 0.25%. For the same compound, the level, % of control [13] was 22%, the inhibition [14] was 96% and the residual binding, % of control [15] was 72%. It also gave a residual binding, % of control [16] of 90%, a residual binding, % of control [17] of 2% and an inhibition [18] of 87%. For the same compound, the level, % of control [19] was 26%, the residual binding, % of control [20] was 85% and the residual binding, % of control [21] was 4.8%. The residual binding, % of control [22] was 0%, the level, % of control [23] was 3% and the residual binding, % of control [24] was 0.6%. For the same compound, the residual binding, % of control [25] was 2%, the residual binding, % of control [26] was 88% and the residual binding, % of control [27] was 0.85%. For the same compound, the residual binding, % of control [28] was 75%, the residual binding, % of control [29] was 0.15% and the inhibition [30] was 100%. It also gave an inhibition [31] of 60%, a residual binding, % of control [32] of 0% and a residual binding, % of control [33] of 82%. The residual binding, % of control [34] was 0.1%, the residual binding, % of control [35] was 82% and the residual binding, % of control [36] was 11%. It also gave a residual binding, % of control [37] of 28%, a residual binding, % of control [38] of 0% and an inhibition [39] of 24%. For the same compound, the % of control [40] was 0.1%, the inhibition [41] was 100% and the inhibition [42] was 15%. The residual binding, % of control [43] was 100% and the residual binding, % of control [44] was 100%.
